Target: T1, hMAGL (MAGL-overexpressing membrane preparations from transiently transfected HEK293T cells) (Homo sapiens, UniProt Q99685)
T1 construct: expressed in transfected cells; host or cells: HEK293T (transient transfection), membrane preparations
T1 sequence (Q99685 1-303): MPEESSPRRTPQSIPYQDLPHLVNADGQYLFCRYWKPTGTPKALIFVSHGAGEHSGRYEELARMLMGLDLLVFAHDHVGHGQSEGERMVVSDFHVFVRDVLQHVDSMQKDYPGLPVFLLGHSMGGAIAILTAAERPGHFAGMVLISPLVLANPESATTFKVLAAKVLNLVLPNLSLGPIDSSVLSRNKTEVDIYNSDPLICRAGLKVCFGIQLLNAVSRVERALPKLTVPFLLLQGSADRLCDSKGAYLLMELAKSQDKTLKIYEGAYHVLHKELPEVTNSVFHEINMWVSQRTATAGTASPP
Experiment: MAGL activity assay (2-AG hydrolysis, glycerol coupled to Amplifu Red fluorescence)
Format: biochemical
Settings: hMAGL-overexpressing HEK293T membranes, 25 μM 2-AG substrate, 20 min. inhibitor incubation
Source text: The MAGL activity assay is based on the production of glycerol from 2-arachidonoylglycerol (2-AG) hydrolysis by MAGL-overexpressing membrane preparations from transiently transfected HEK293T cells, as previously reported in van der Wel T et al., “A natural substrate-based fluorescence assay for inhibitor screening on diacylglycerol lipase”, J Lipid Res., 2015, 56(4), 927-35. The produced glycerol is coupled to the oxidation of commercially available Amplifu™ Red (Sigma-Aldrich Chemie N.V., Zwijndrecht, Netherlands) via a multi-enzyme cascade, resulting in a fluorescent signal from the dye resorufin.
Standard assays were performed in HEMNB buffer (50 mM HEPES pH 7.4, 1 mM EDTA, 5 mM MgCl2, 100 mM NaCl, 0.5% (w/v) BSA) in black, flat bottom 96-wells plates. Final protein concentration of membrane preparations from overexpressing hMAGL HEK293T cells was 1.5 μg/mL (0.3 μg per well). Inhibitors were added from 40× concentrated DMSO stocks. […] Final assay concentrations: 0.2 U/mL GK, GPO and HRP, 0.125 mM ATP, 10 μM Amplifu™ Red, 25 μM 2-AG, 5% DMSO, 0.5% ACN in a total volume of 200 μL.
For IC50 determination, the MAGL-overexpressing membranes were incubated with different inhibitor concentrations. Slopes of corrected fluorescence in time were determined in the linear interval of t=10 to t=35 min and then scaled to the corrected positive control of hMAGL-overexpressing membranes treated with vehicle (DMSO) as a 100% activity reference point. The data was exported to GraphPad Prism 5.0 and analysed in a non-linear dose-response analysis with variable slope.

Row | Compound | IC50 [nM]
1 | CCOC(=O)C[S+]([O-])c1ccc(C(=O)N2CCN(c3cccc(C)c3)[C@@H](C)C2)cc1[N+](=O)[O-] (stereo partly drawn) [Example 2, Ethyl 2-((4-((S)-3-methyl-4-(m-tolyl)piperazine-1-carbonyl)-2-nitrophenyl)sulfinyl)acetate] | 269
2 | CCOC(=O)C[S+]([O-])c1ccc(C(=O)N2CCN(c3cccc(C)c3)[C@H](C)C2)cc1[N+](=O)[O-] (stereo partly drawn) [Example 3, Ethyl 2-((4-((R)-3-methyl-4-(m-tolyl)piperazine-1-carbonyl)-2-nitrophenyl)sulfinyl)acetate] | 195
3 | CCOC(=O)CSc1ccc(C(=O)N2CCN(c3cccc(C)c3)[C@@H](C)C2)cc1[N+](=O)[O-] [Example 5, Ethyl (S)-2-((4-(3-methyl-4-(m-tolyl)piperazine-1-carbonyl)-2-nitrophenyl)thio)acetate] | > 10000
4 | CCOC(=O)CS(=O)(=O)c1ccc(C(=O)N2CCN(c3cccc(C)c3)[C@@H](C)C2)cc1[N+](=O)[O-] [Example 6, Ethyl (S)-2-((4-(3-methyl-4-(m-tolyl)piperazine-1-carbonyl)-2-nitrophenyl)sulfonyl)acetate] | > 10000
5 | CCOC(=O)C[S+]([O-])c1ccc(C(=O)N2CCN(c3cccc(C)c3)[C@@H](C)C2)cc1 (stereo partly drawn) [Example 7, Ethyl 2-((4-((S)-3-methyl-4-(m-tolyl)piperazine-1-carbonyl)phenyl)sulfinyl)acetate] | 5620
6 | CCOC(=O)C[S+]([O-])c1ccc(C(=O)N2CCN(c3cccc(F)c3)CC2)cc1[N+](=O)[O-] (stereo not shown) [Example 9, Ethyl 2-((4-(4-(3-fluorophenyl)piperazine-1-carbonyl)-2-nitrophenyl)sulfinyl)acetate] | 631
7 | CCOC(=O)C[S+]([O-])c1ccc(C(=O)N2CCN(c3ccc(C(F)(F)F)cc3)CC2)cc1[N+](=O)[O-] (stereo not shown) [Example 16, Ethyl 2-((2-nitro-4-(4-(4-(trifluoromethyl)phenyl)piperazine-1-carbonyl)phenyl)sulfinyl)acetate] | 589
8 | CCOC(=O)C[S+]([O-])c1ccc(C(=O)N2CCN(c3cccc([N+](=O)[O-])c3)CC2)cc1[N+](=O)[O-] (stereo not shown) [Example 19, Ethyl 2-((2-nitro-4-(4-(3-nitrophenyl)piperazine-1-carbonyl)phenyl)sulfinyl)acetate] | 2570
9 | CCOC(=O)C[S+]([O-])c1ccc(C(=O)N2CCN(c3cccc(-c4ccccc4)c3)CC2)cc1[N+](=O)[O-] (stereo not shown) [Example 20, Ethyl 2-((4-(4-([1,1′-biphenyl]-3-yl)piperazine-1-carbonyl)-2-nitrophenyl)sulfinyl)acetate] | 1350
10 | CCOC(=O)C[S+]([O-])c1ccc(C(=O)N2CCN(c3ccc(Cl)c(Cl)c3)CC2)cc1[N+](=O)[O-] (stereo not shown) [Example 22, Ethyl 2-((4-(4-(3,4-dichlorophenyl)piperazine-1-carbonyl)-2-nitrophenyl)sulfinyl)acetate] | 2570
11 | CCOC(=O)C[S+]([O-])c1ccc(C(=O)N2CCN(c3ccc(Cl)cc3Cl)CC2)cc1[N+](=O)[O-] (stereo not shown) [Example 23, Ethyl 2-((4-(4-(2,4-dichlorophenyl)piperazine-1-carbonyl)-2-nitrophenyl)sulfinyl)acetate] | 1950
12 | CCOC(=O)C[S+]([O-])c1ccc(C(=O)N2CCN(c3c(Cl)cccc3Cl)CC2)cc1[N+](=O)[O-] (stereo not shown) [Example 24, Ethyl 2-((4-(4-(2,6-dichlorophenyl)piperazine-1-carbonyl)-2-nitrophenyl)sulfinyl)acetate] | 1820
13 | CCOC(=O)C[S+]([O-])c1ccc(C(=O)N2CCN(c3cccc(F)c3)[C@@H](C)C2)cc1[N+](=O)[O-] (stereo partly drawn) [Example 25, Ethyl 2-((4-((S)-4-(3-fluorophenyl)-3-methylpiperazine-1-carbonyl)-2-nitrophenyl)sulfinyl)acetate] | 155
14 | CCOC(=O)C[S+]([O-])c1ccc(C(=O)N2CCN(c3cccc(C(F)(F)F)c3)[C@H](C)C2)cc1[N+](=O)[O-] (stereo partly drawn) [Example 30, Ethyl 2-((4-((R)-3-methyl-4-(3-(trifluoromethyl)phenyl)piperazine-1-carbonyl)-2-nitrophenyl)sulfinyl)acetate] | 115
15 | CCOC(=O)C[S+]([O-])c1ccc(C(=O)N2CCN(c3cccc(C(F)(F)F)c3)[C@@H](C)C2)cc1[N+](=O)[O-] (stereo partly drawn) [Example 31, Ethyl 2-((4-((S)-3-methyl-4-(3-(trifluoromethyl)phenyl)piperazine-1-carbonyl)-2-nitrophenyl)sulfinyl)acetate] | 200
16 | CCN(C)C(=O)C[S+]([O-])c1ccc(C(=O)N2CCN(c3cccc(Cl)c3)[C@H](C)C2)cc1[N+](=O)[O-] (stereo partly drawn) [Example 33, 2-((4-((R)-4-(3-Chlorophenyl)-3-methylpiperazine-1-carbonyl)-2-nitrophenyl)sulfinyl)-N-ethyl-N-methylacetamide] | > 10000

Other lines, results leading:

Row | IC50 [nM] | Compound
17 | 2950 | C[C@H]1[C@H](C)N(c2cccc(Cl)c2)CCN1C(=O)c1ccc([S+]([O-])CC(=O)c2ccc(C(F)(F)F)cc2)c(Cl)c1 (mixture of isomers) [Example 103, (±) 2-((2-Chloro-4-(4-(3-chlorophenyl)-trans-2,3-dimethylpiperazine-1-carbonyl)phenyl)sulfinyl)-1-(4-(trifluoromethyl)phenyl)ethan-1-one]
18 | 2290 | C[C@H]1[C@H](C)N(c2cccc(Cl)c2)CCN1C(=O)c1ccc([S+]([O-])CC(=O)c2ccccc2)c(Cl)c1 (mixture of isomers) [Example 104, (±) 2-((2-Chloro-4-(4-(3-chlorophenyl)-trans-2,3-dimethylpiperazine-1-carbonyl)phenyl)sulfinyl)-1-phenylethan-1-one]
19 | 10 | C[C@H]1[C@H](C)N(c2cccc(Cl)c2)CCN1C(=O)c1ccc([S+]([O-])CC(=O)c2ccc(C#N)cn2)c(Cl)c1 (mixture of isomers) [Example 105, (±) 6-(2-((2-Chloro-4-(4-(3-chlorophenyl)-trans-2,3-dimethylpiperazine-1-carbonyl)phenyl)sulfinyl)acetyl)nicotinonitrile]
20 | 14.8 | CCOC(=O)C[S+]([O-])c1ccc(C(=O)N2CCN(c3cccc(Cl)c3)[C@H](C)[C@H]2C)cc1C(F)(F)F (mixture of isomers) [Example 107, (±) Ethyl 2-((4-(4-(3-chlorophenyl)-trans-2,3-dimethylpiperazine-1-carbonyl)-2-(trifluoromethyl)phenyl)sulfinyl)acetate]
21 | 34.7 | C[C@@H]1CN(C(=O)c2ccc([S+]([O-])CC(=O)OCCCO)c([N+](=O)[O-])c2)CCN1c1cccc(Cl)c1 (stereo partly drawn) [Example 41, 3-Hydroxypropyl 2-((4-((R)-4-(3-chlorophenyl)-3-methylpiperazine-1-carbonyl)-2-nitrophenyl)sulfinyl)acetate]
22 | 27.5 | CCOC(=O)C[S+]([O-])c1ccc(C(=O)N2CCN(c3cccc(Cl)c3)CC2C)cc1F (stereo not shown) [Example 44, Ethyl 2-((4-(4-(3-chlorophenyl)-2-methylpiperazine-1-carbonyl)-2-fluorophenyl)sulfinyl)acetate]
23 | 46.8 | CCOC(=O)C[S+]([O-])c1ccc(C(=O)N2CCN(c3cccc(Cl)c3)C(C)(C)C2)cc1F (stereo not shown) [Example 47, Ethyl 2-((4-(4-(3-chlorophenyl)-3,3-dimethylpiperazine-1-carbonyl)-2-fluorophenyl)sulfinyl)acetate]
24 | 57.5 | CCOC(=O)C[S+]([O-])c1ccc(C(=O)N2CCN(c3cccc(Cl)c3)CC2(C)C)cc1F (stereo not shown) [Example 48, Ethyl 2-((4-(4-(3-chlorophenyl)-2,2-dimethylpiperazine-1-carbonyl)-2-fluorophenyl)sulfinyl)acetate]
25 | 282 | CCOC(=O)C[S+]([O-])c1c(F)cc(C(=O)N2CCN(c3cccc(Cl)c3)[C@H](C)C2)cc1F (stereo partly drawn) [Example 106, Ethyl 2-((4-((R)-4-(3-chlorophenyl)-3-methylpiperazine-1-carbonyl)-2,6-difluorophenyl)sulfinyl)acetate]

Source: US20230121721A1, “MONOACYLGLYCEROL LIPASE INHIBITORS” (STICHTING HET NEDERLANDS KANKER INSTITUUT - ANTONI VAN …, priority 2020, published 2023)
